The values that follow come from patent US6242199A, “Assays for growth hormone secretagogue receptors” (Merck & Co., Inc., priority 1998, dated 2001).

Test [1] deals with T1, growth hormone secretagogue receptor (GHSR), porcine anterior pituitary membranes (Sus scrofa, UniProt Q95254).
T1 construct: Frozen anterior pituitary glands from male swine (50-80 Kg); from tissue; host or cells: anterior pituitary glands of male swine (50-80 kg), crude membranes
As to the kind of experiment: [35S]-Compound A radioreceptor binding, porcine anterior pituitary membranes. As to the method:
Frozen anterior pituitary glands from male swine (50-80 Kg) or from the Wistar male rats (150-200 g) were homogenized in a tissue homogenizer in ice-cold buffer (50 mM Tris-HCl buffer, pH 7.4, 5 mM MgCl2, 2.5 mM EDTA, 0.1% bovine serum albumin and 30 μg/ml bacitracin). The homogenates were centrifuged for 5 min at 1,400×g and the resulting supernatants were then centrifuged at 34,000×g for 20 min. The pellets were resuspended in same buffer to a 1,500 μg protein/ml and stored at -80° C. Protein was determined by a Bio-Rad method (Bio-Rad Laboratories, Richmond, Calif.).
Aliquots were incubated at 20° C. for 60 min and bound radioligand was separated from free by filtration through GF/C filters pretreated with 0.5% of polyethylenimine in a Brandel cell harvester. […] Assays were carried out in triplicate and experiments repeated at least three times.

Another test has as its system swine Type II GHSR. The test is described as follows: Aequorin bioluminescence assay in Xenopus oocytes, swine Type II GHSR. It counts as cell-based. The note with it: swine Type II-derived cRNA truncated in TM-6. As for the experimental part:
Xenopus laevis oocytes were isolated and injected using standard methods previously described by Arena, et. al. 1991, Mol. Pharmacol. 40, 368-374, which is hereby incorporated by reference. Adult female Xenopus Laevis frogs (purchased from Xenopus One, Ann Arbor, Mich.) were anesthetized with 0.17% tricaine methanesulfonate and the ovaries were surgically removed and placed in a 60 mm culture dish (Falcon) containing OR-2 medium without calcium (82.5 mM NaCl, 2 mM KCl, 2.5 mM sodium pyruvate, 1 mM MgCl2, 100 μ/ml penicillin, 1 mg/ml streptomycin, 5 mM HEPES, pH=7.5; ND-96 from Specialty Media, NJ). Ovarian lobes were broken open, rinsed several times, and oocytes were released from their sacs by collagenase A digestion (Boehringer-Mannheim; 0.2% for 2-3 hours at 18° C.) in calcium-free OR-2. […]
The ABA requires injection of library pool cRNA (25 ng/egg for pool sizes of 500 to 10,000) with aequorin cRNA (2 ng/egg) supplemented with the G-protein alpha subunit Gα11 (2 ng/egg). […] Polymerase chain reaction (PCR) was utilized to generate a DNA fragment corresponding to the open reading frame (ORF) of the aequorin cDNA with an optimized Kosak translational initiation sequence (Inouye, S. et. al., 1985, Proc. Natl. Acad. Sci. USA 82:3154-3158). […]

One may read the Ki as the dissociation constant of the complex between target and ligand, obtained from inhibition or displacement.

T1 sequence (Q95254 whole entry): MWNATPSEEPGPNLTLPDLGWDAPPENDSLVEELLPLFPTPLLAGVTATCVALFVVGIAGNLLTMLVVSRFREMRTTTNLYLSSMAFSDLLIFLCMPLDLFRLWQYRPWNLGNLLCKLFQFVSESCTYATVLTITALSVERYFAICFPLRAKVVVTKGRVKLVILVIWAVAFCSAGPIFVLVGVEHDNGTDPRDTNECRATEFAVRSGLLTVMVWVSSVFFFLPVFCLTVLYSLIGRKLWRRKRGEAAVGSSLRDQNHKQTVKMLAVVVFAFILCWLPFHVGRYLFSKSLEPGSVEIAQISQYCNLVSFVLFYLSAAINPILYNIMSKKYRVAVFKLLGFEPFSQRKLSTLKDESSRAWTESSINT

In the case of `CC(C)(N)C(=O)N[C@H](COCc1ccccc1)C(=O)N1CCC2(CC1)CN(S(C)(=O)=O)c1ccccc12` [Compound A, (N-[1(R)-[1,2-dihydro-1-methanesulfonlylspiro[3H-indole-3,4'-piperidin]-1'-yl)carbonyl]-2-(phenylmethyloxy)-ethyl]-2-amino-2-methyl-propanamide], the “specific binding of [35S]-Compound A detected in the absence of Mg2+” value in test [1] (absence of Mg2+, in comparison with control (10 mM Mg2+)) was 15-25%. Moreover, the Ki in test [1] (competition with [35S]-Compound A, read-out: inhibition constant, Ki) turned out to be 240 pM. Further, the “concentration (Bmax)” value in test [1] (porcine anterior pituitary membranes, Scatchard analysis, n=4) is given as 6.3±0.6 fmol/mg of protein. Further, the Kd in test [1] (porcine anterior pituitary membranes, Scatchard analysis, n=4, read-out: apparent dissociation constant (KD)) stood at 161 ± 11 pM. Moreover, in test [1] (porcine membranes, nonspecific in 500 nM unlabeled Compound A), the “specific binding of total binding” value is recorded as 65-85%. The “displacement of / competition with [35S]-Compound A binding (in words)” value in test [1] (unlabeled competitor, FIG. 24) is reported as “completely displaced”. In addition, the “response (in words)” value with swine Type II GHSR is reported as “failed to give a response”.
